Activity calls are given as the source filed them.
Assays:
[1] = target: Phospholipase D1 (Homo sapiens, UniProt Q13393); test: PLD1 purified enzyme concentration response. [Related pubchem assays (depositor defined):AID588854]; type: functional
[2] = target: Phospholipase D2 (Homo sapiens, UniProt O14939); test: PLD2 purified enzyme concentration response. [Related pubchem assays (depositor defined):AID588854]; type: functional
[3] = target: Hexokinase-1 (Homo sapiens, UniProt P19367); test: SAR analysis of small molecule inhibitors of hexokinase domain containing I (HKDC1) in the hexokinase 1 selectivity assay. [Related pubchem assays (depositor defined):AID493160, AID493190]; type: functional
[4] = target: T1, Hexokinase HKDC1 (Homo sapiens, UniProt Q2TB90); test: SAR analysis of small molecule inhibitors of hexokinase domain containing I (HKDC1). [Related pubchem assays (depositor defined):AID493160, AID493190]; type: functional
T1 sequence (Q2TB90 whole entry): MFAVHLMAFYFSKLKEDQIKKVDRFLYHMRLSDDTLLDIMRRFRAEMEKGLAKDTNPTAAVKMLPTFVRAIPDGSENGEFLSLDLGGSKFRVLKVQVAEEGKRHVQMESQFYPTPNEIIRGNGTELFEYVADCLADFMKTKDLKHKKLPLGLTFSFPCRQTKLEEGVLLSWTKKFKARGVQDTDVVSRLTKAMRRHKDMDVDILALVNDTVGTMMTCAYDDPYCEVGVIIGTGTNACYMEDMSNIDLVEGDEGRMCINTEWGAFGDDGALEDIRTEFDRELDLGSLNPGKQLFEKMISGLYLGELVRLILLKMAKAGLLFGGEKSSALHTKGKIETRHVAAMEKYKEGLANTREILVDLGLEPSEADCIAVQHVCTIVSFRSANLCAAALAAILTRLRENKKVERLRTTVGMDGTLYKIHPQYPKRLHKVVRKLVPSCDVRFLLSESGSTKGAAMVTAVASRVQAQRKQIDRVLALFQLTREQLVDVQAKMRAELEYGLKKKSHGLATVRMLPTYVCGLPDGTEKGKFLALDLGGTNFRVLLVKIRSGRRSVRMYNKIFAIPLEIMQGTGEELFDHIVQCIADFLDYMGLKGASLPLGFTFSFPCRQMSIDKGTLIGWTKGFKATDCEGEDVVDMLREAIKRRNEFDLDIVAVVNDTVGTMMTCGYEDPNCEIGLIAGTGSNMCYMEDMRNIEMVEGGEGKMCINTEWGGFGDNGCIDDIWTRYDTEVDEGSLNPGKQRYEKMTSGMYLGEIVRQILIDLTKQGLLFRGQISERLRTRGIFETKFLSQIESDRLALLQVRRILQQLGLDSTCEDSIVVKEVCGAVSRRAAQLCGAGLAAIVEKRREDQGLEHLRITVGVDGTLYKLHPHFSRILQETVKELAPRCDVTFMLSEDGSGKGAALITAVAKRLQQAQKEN

[5] = target: Major prion protein (Homo sapiens, UniProt P04156); type: functional, cell-based
[6] = cells
[7] = system: INS1; test: beta-cell survival under cytokine stress – INS-1E, ATP luminescence, dry powder, dose response (AID 488844); type: functional, cell-based; settings: Rattus norvegicus
[8] = suppression of NO production in INS-1E cells – cell-based, Griess absorbance, dry powder, set 3, dose response (AID 488870); type: functional; settings: Rattus norvegicus
[9] = system: INS1; test: INS-1E mitochondrial potential loss inhibitors – cell-based, JC-1 fluorescence, dry powder, set 2, dose response (AID 488867); type: functional; settings: Rattus norvegicus
[10] = system: INS1; test: INS-1E mitochondrial potential rescue under cytokines – cell-based, JC-1 fluorescence ratio, dry powder, dose response (AID 488931); type: functional; settings: Rattus norvegicus

Q: With `O=C(NCCN1CCC2(CC1)C(=O)NCN2c1ccc(F)c(F)c1)c1ccc2ccccc2c1` as the molecule, how does the IC50 [1] read?
A: Its IC50 is 20 µM (active).

Q: And the IC50 [2]?
A: Its IC50 is 0.098 µM (active).

Q: What does the source list for `O=C(CSc1ncnc2ccccc12)Nc1cccc(S(=O)(=O)N2CCOCC2)c1`?
A: IC50 [3]: > 80 µM (inactive); IC50 [4]: > 80 µM (inactive); IC50 [5]: 9.12 µM (active); IC50 [6]: > 138 µM (inactive)

Q: For `COc1ccc(S(=O)(=O)N(C)C[C@H]2Oc3c(NC(=O)Nc4cccc5ccccc45)cccc3C(=O)N([C@H](C)CO)C[C@@H]2C)cc1`, which AC50 [7] is on record?
A: The AC50 was 21.9 µM (active).

Q: And the AC50 [8]?
A: Its AC50 is 63.9 µM (active).

Q: And the AC50 [9]?
A: Its AC50 is 43.4 µM (active).

Q: What about the AC50 [10] of the same molecule?
A: The AC50 was 33.7 µM (active).

Source: ChEMBL document CHEMBL1201862, “PubChem BioAssay data set” (2004)
